The source made the active and inactive calls. The rule behind the calls is not given here.
Key:
HeLa [1] = assay: Antiproliferative activity against human HeLa cells assessed as reduction in cell viability incubated for 72 hrs by MTT assay; assay type: functional, cell-based
MDA-MB-468 = assay: cells; settings: Homo sapiens, MDA-MB-468, 72 h
Description: Antiproliferative activity against human MDA-MB-468 cells assessed as reduction in cell viability incubated for 72 hrs by CelltiterGlo luminescent assay

[2] = Antiproliferative activity against human RPE-1 cells assessed as reduction in cell viability incubated for 72 hrs by CelltiterGlo luminescent assay; assay type: toxicity, cell-based; settings: RPE-1 cells (TERT-RPE1)
BT-474 = assay: Antiproliferative activity against human BT-474 cells assessed as reduction in cell viability incubated for 72 hrs by CelltiterGlo luminescent assay; settings: BT-474, 72 h
[3] = Antiproliferative activity against human Hermes 3C cells assessed as reduction in cell viability incubated for 72 hrs by CelltiterGlo luminescent assay; assay type: toxicity, cell-based
Tubulin (Homo sapiens) = Tubulin (Homo sapiens) (UniProt P68371+Q9H4B7+P0DPH7+P68366+Q13509+Q71U36+P04350+Q3ZCM7+P07437+P68363+Q9BQE3+Q6PEY2+Q13885+Q9BVA1+Q9BUF5); assay: Inhibition of tubulin polymerization in human MES-SA cells assessed as appearance of spherical shaped cells at 10 nM incubated for 24 hrs by DAPI staining based confocal microscopy analysis; assay type: cell-based
A-375 = assay: Antiproliferative activity against human A-375 cells assessed as reduction in cell viability incubated for 72 hrs by CelltiterGlo luminescent assay; settings: A-375, 72 h
[4] = Antiproliferative activity against human WM1366 cells assessed as reduction in cell viability incubated for 72 hrs by CelltiterGlo luminescent assay; settings: WM1366, 72 h
CAKI-1 = assay: Antiproliferative activity against human CAKI-1 cells assessed as reduction in cell viability incubated for 72 hrs by CelltiterGlo luminescent assay; settings: CAKI-1, 72 h
[5] = Antiproliferative activity against human HEK293 cells assessed as reduction in cell viability incubated for 72 hrs by CelltiterGlo luminescent assay; assay type: toxicity, cell-based
HeLa [6] = assay: Antiproliferative activity against human HeLa cells assessed as reduction in cell viability incubated for 72 hrs by CelltiterGlo luminescent assay; assay type: functional, cell-based
HT-1080 = assay: Antiproliferative activity against human HT-1080 cells assessed as reduction in cell viability incubated for 72 hrs by CelltiterGlo luminescent assay; settings: HT-1080, 72 h
MCF7 = assay: Antiproliferative activity against human MCF7 cells assessed as reduction in cell viability incubated for 72 hrs by CelltiterGlo luminescent assay; assay type: functional, cell-based; settings: MCF7, 72 h
[7] = Antiproliferative activity against human Melmet 5 cells assessed as reduction in cell viability incubated for 72 hrs by CelltiterGlo luminescent assay; settings: Melmet 5, 72 h
MES-SA = assay: Antiproliferative activity against human MES-SA cells assessed as reduction in cell viability incubated for 72 hrs by CelltiterGlo luminescent assay
HeLa [8] = assay: Antiproliferative activity against human HeLa cells assessed as inhibition of cell growth incubated for 72 hrs in presence of verapamil by MTT assay; assay type: functional, cell-based
HeLa [9] = assay: Antiproliferative activity against human HeLa cells assessed as inhibition of cell growth incubated for 72 hrs in absence of verapamil by MTT assay; assay type: functional, cell-based
cells = settings: Homo sapiens, MDA-MB-468, 72 h

## CCOC(=O)CCCCN(c1ccc2c(ccn2C)c1)S(=O)(=O)c1cc(OC)c(OC)c(OC)c1
HeLa [1]
  IC50: > 1000 nM

## COc1cc(S(=O)(=O)N(CCCCBr)c2ccc3c(ccn3C)c2)cc(OC)c1OC
HeLa [1]
  IC50: > 1000 nM

## COc1cc(S(=O)(=O)N(CCCC(=O)O)c2ccc3c(ccn3C)c2)cc(OC)c1OC
HeLa [1]
  IC50: > 1000 nM

## COc1cc(S(=O)(=O)N(CC#N)c2ccc3c(c2)C=CC3CC#N)cc(OC)c1OC (configuration not stated)
HeLa [1]
  IC50: 974 nM

## C#CCN(c1ccc2c(ccn2C)c1)S(=O)(=O)c1cc(OC)c(OC)c(OC)c1
HeLa [1]
  IC50: 79.8 nM

## CC[C@]1(O)C[C@H]2CN(CCc3c([nH]c4ccccc34)[C@@](C(=O)OC)(c3cc4c(cc3OC)N(C=O)[C@H]3[C@@](O)(C(=O)OC)[C@H](OC(C)=O)[C@]5(CC)C=CCN6CC[C@]43[C@@H]65)C2)C1 [VINCRISTINE]
MDA-MB-468
  IC50: 0.4 nM
[2]
  IC50 at 72 h: 7.6 nM
BT-474
  IC50: 2.9 nM
[3]
  IC50 at 72 h: 2.8 nM
Tubulin (Homo sapiens)
  inhibition: Active
A-375
  IC50: 3.5 nM
[4]
  IC50: 4.5 nM
CAKI-1
  IC50: 5.7 nM
[5]
  IC50 at 72 h: 25.8 nM
HeLa [6]
  IC50: 1 nM
HT-1080
  IC50: 0.3 nM
MCF7
  IC50: 4.2 nM
[7]
  IC50: 0.2 nM
MES-SA
  IC50: 4.9 nM

## COc1cc(S(=O)(=O)N(CCCBr)c2ccc3c(ccn3C)c2)cc(OC)c1OC
HeLa [1]
  IC50: > 1000 nM

## COc1cc(S(=O)(=O)N(CCCCCBr)c2ccc3c(ccn3C)c2)cc(OC)c1OC
HeLa [1]
  IC50: > 1000 nM

## COc1cc(S(=O)(=O)Nc2ccc3c(c2)c(C(N)=O)cn3C)cc(OC)c1OC
HeLa [1]
  IC50: 102 nM
HeLa [8]
  IC50: 55.4 nM
MDA-MB-468
  IC50: 101 nM
[2]
  IC50 at 72 h: 173 nM
HeLa [9]
  IC50: 102 nM
BT-474
  IC50: 126 nM
[3]
  IC50 at 72 h: 466 nM
A-375
  IC50: 245 nM
[4]
  IC50: 278 nM
CAKI-1
  IC50: 310 nM
[5]
  IC50 at 72 h: 492 nM
cells
  IC50: 284 nM
HeLa [6]
  IC50: 93 nM
HT-1080
  IC50: 69.2 nM
MCF7
  IC50: 108 nM
[7]
  IC50: 29.5 nM
MES-SA
  IC50: 99.9 nM

## COc1cc(S(=O)(=O)N(C)c2ccc3c(c2)C=CC3CC#N)cc(OC)c1OC (configuration not stated)
HeLa [1]
  IC50: 114 nM

## COc1cc(S(=O)(=O)N(CC#N)c2ccc3c(c2)c(C=O)cn3C)cc(OC)c1OC
HeLa [1]
  IC50: 22.7 nM
HeLa [8]
  IC50: 52.4 nM
MDA-MB-468
  IC50: 15.2 nM
[2]
  IC50 at 72 h: 41.3 nM
HeLa [9]
  IC50: 57.4 nM
BT-474
  IC50: 66.4 nM
[3]
  IC50 at 72 h: 81.3 nM
A-375
  IC50: 49.8 nM
[4]
  IC50: 31.4 nM
CAKI-1
  IC50: 66.2 nM
[5]
  IC50 at 72 h: 70.9 nM
cells
  IC50: 14.7 nM
HeLa [6]
  IC50: 18.4 nM
HT-1080
  IC50: 14 nM
MCF7
  IC50: 15.3 nM
[7]
  IC50: 12.5 nM
MES-SA
  IC50: 32.5 nM

## COc1cc(S(=O)(=O)N(CCCCN2CCOCC2)c2ccc3c(ccn3C)c2)cc(OC)c1OC
HeLa [1]
  IC50: > 1000 nM

## COc1cc(S(=O)(=O)Nc2ccc3c(c2)C=CC3CC#N)cc(OC)c1OC (configuration not stated)
HeLa [1]
  IC50: 2560 nM

## COc1cc(S(=O)(=O)N(CCCCCCN2CCOCC2)c2ccc3c(ccn3C)c2)cc(OC)c1OC
HeLa [1]
  IC50: > 1000 nM

## COc1cc(S(=O)(=O)N(CC#N)c2ccc3c(c2)c(C#N)cn3C)cc(OC)c1OC
HeLa [1]
  IC50: 24.4 nM
HeLa [8]
  IC50: 27.2 nM
MDA-MB-468
  IC50: 31.6 nM
[2]
  IC50 at 72 h: 76.3 nM
HeLa [9]
  IC50: 34.5 nM
BT-474
  IC50: 71.1 nM
[3]
  IC50 at 72 h: 70.5 nM
A-375
  IC50: 86.8 nM
[4]
  IC50: 81.3 nM
CAKI-1
  IC50: 29.5 nM
[5]
  IC50 at 72 h: 17.7 nM
cells
  IC50: 34.4 nM
HeLa [6]
  IC50: 77.3 nM
HT-1080
  IC50: 65.8 nM
MCF7
  IC50: 60.8 nM
[7]
  IC50: 32.3 nM
MES-SA
  IC50: 80.3 nM

## CC(=O)O[C@@]12CO[C@@H]1C[C@H](O)[C@@]1(C)C(=O)[C@H](O)C3=C(C)[C@@H](OC(=O)[C@H](O)[C@@H](NC(=O)OC(C)(C)C)c4ccccc4)C[C@@](O)([C@@H](OC(=O)c4ccccc4)[C@H]21)C3(C)C [DOCETAXEL ANHYDROUS]
MDA-MB-468
  IC50: 3.1 nM
[2]
  IC50 at 72 h: 8.2 nM
BT-474
  IC50: 21.4 nM
[3]
  IC50 at 72 h: 1.7 nM
A-375
  IC50: 4.5 nM
[4]
  IC50: 8.5 nM
CAKI-1
  IC50: 2.7 nM
[5]
  IC50 at 72 h: 7.5 nM
cells
  IC50: 8.3 nM
HeLa [6]
  IC50: 1 nM
HT-1080
  IC50: 1.5 nM
MCF7
  IC50: 3.9 nM
[7]
  IC50: 9.5 nM
MES-SA
  IC50: 3.4 nM

## COc1cc(S(=O)(=O)N(CCCN2CCOCC2)c2ccc3c(ccn3C)c2)cc(OC)c1OC
HeLa [1]
  IC50: > 1000 nM

## COc1cc(S(=O)(=O)N(Cc2ccc(N)cc2)c2ccc3c(ccn3C)c2)cc(OC)c1OC
HeLa [1]
  IC50: 464 nM

Reference: ChEMBL document CHEMBL5579852, “Promising anti-proliferative indolic benzenesulfonamides alter mechanisms with sulfonamide nitrogen substituents” (Eur J Med Chem, 2024)
